Experimental data as given in US12404244B2, “Pan-KIT kinase inhibitor having quinoline structure and application thereof” (Tarapeutics Science Inc., priority 2018, dated 2025).
Read-outs that look alike come from different tables or passages of the source.

What was measured:
BaF3 = assay: Proliferation of parental BaF3 cells (CCK-8); format: cell-based, mouse; conditions: Mus musculus, read-out: GI50 BaF3
Source text: Compounds as provided herein were further evaluated for their inhibitory effects on proliferation of cancer cells by testing their effects on growth of cancer cells. In this example the following cells were used: primary mouse B cells BaF3 (purchased from ATCC), GIST-T1 cells of the human gastrointestinal stromal tumor cell line (expressing wild-type KIT gene) (purchased from Cosmo Bio Co., Ltd. (Japan)). The present lab further constructed and used the following: mouse Tel-Kit-BaF3 (stably expressing KIT wild-type kinase), mouse Tel-Kit/T670I-BaF3 (stably expressing KIT T670I mutant kinase), mouse Tel-Kit/V559A-BaF3 (stably expressing KIT V559A mutant kinase), mouse Tel-Kit/V559D-BaF3 (stably expressing KIT V559D mutant kinase), mouse Tel-Kit/V559G-BaF3 (stably expressing KIT V559G mutant kinase), mouse Tel-Kit/V560D-BaF3 (stably expressing KIT V560D mutant kinase), mouse Tel-Kit/L576P-BaF3 (stably expressing KIT L576P mutant kinase), mouse Tel-Kit/V654A-BaF3 (stably expressing KIT V654A mutant kinase), mouse Tel-Kit/V654A/V559D-BaF3 (stably expressing KIT V654A V559D mutant kinase), mouse Tel-Kit/T670E-BaF3 (stably expressing KIT T670E mutant kinase), mouse Tel-Kit/T670I/V559D-BaF3 (stably expressing KIT T670I V559D mutant kinase), mouse Tel-Kit/S709F-BaF3 (stably expressing KIT S709F mutant kinase), mouse Tel-Kit/D816E-BaF3 (stably expressing KIT D816E mutant kinase), mouse Tel-Kit/D816H-BaF3 (stably expressing KIT D816H mutant kinase), mouse Tel-Kit/D820E-BaF3 (stably expressing KIT D820E mutant kinase), mouse Tel-Kit/D820G-BaF3 (stably expressing KIT D820G mutant kinase), mouse Tel-Kit/D820Y-BaF3 (stably expressing KIT D820Y mutant kinase), mouse Tel-Kit/N822K-BaF3 (stably expressing KIT N822K mutant kinase), mouse Tel-Kit/Y823D-BaF3 (stably expressing KIT Y823D mutant kinase), mouse Tel-Kit/A829P-BaF3 (stably expressing KIT A829P mutant kinase), GIST-T1-T670I cells of the human gastrointestinal stromal tumor cell line (expressing KIT-T670I mutant gene). The above cell lines were constructed by: amplifying respectively the sequences of human KIT and various mutant kinase regions of KIT via PCR, inserting the fragments respectively into MSCV-Puro vectors having a N-terminal TEL fragment and/or a NPM fragment and/or a TPR fragment (purchased from Clontech), transfecting mouse BaF3 cells with the vectors by means of retrovirus to obtain stably transfected cells, removing the growth factor IL-3, and thereby eventually obtaining cell lines that depend on the transferred protein KIT or various mutants of KIT. The GIST-T1-T670I (expressing C-KIT-T670I mutant gene) cell line was constructed by our laboratory as follows: designing sgRNA that targeted a region around T670 of the KIT gene with CRISPR Design Tool (website: crispr.mit.edu, Zhang Feng Lab), cloning it into pSpCas9(BB)-2A-Puro vector; co-transfecting cells with the resultant vector and a single-stranded oligonucleotide having T670I site mutation that is near to T670, subjecting the resultant to antibiotics screening, followed by dilution, and monocellular culture in a 96-well plate; validating the site T670 of the cells by sequence detection via Sanger sequencing.
The cells after incubation were detected using CCK-8 (purchased from MedChem Express, Shanghai, China) cell viability assay kit (CCK-8 may be reduced by dehydrogenase in living cells to a highly water-soluble yellow formazan product, and the amount of the resultant formazan is proportional to the number of living cells), the number of living cells were quantified with a microplate reader, and GI50 of the compounds and the control compounds were calculated (the results shown in Table 2 and Table 3).

[1] = tested on: TEL-cKIT/D820G-BaF3 mouse tumor model; assay: Tumor-grafted mouse model established with TEL-cKIT/D820G-BaF3 cells; format: in vivo; conditions: oral, every day
Procedure: In this example Compound 1 and Compound 2 were respectively tested in TEL-cKIT/T670I-BaF3, TEL-cKIT/Y823D-BaF3, TEL-cKIT/D820G-BaF3 and GIST-T1-T670I mouse models.
Experimental protocols were as follows. • (1) Bal b/c female mice aged 4-6 weeks were purchased from Beijing Weitong Lihua Laboratory Animal Co., Ltd., and the mice were raised in an SPF laboratory. The drinking water and padding were sterilized by autoclaving. All operations on mice were conducted under aseptic conditions. • (2) About 5×10^6 TEL-cKIT/T670I-BaF3, TEL-cKIT/Y823D-BaF3, TEL-cKIT/D820G-BaF3 or GIST-T1-T670I cells were respectively injected subcutaneously onto the left back of all mice on Day 0. • (3) From Day 6, for the TEL-cKIT/T670I-BaF3 mouse model the corresponding mice were administrated orally every day with methylcellulose (HKI) as the vehicle (5 mice); with Compound 1 and Compound 2 at a dosage of 10 mg/kg, 20 mg/kg, 40 mg/kg, 100 mg/kg mouse weight (5 mice in each group); and with Sunitnib (purchased from MedChemExpress, China) at a dosage of 40 mg/kg mouse weight (5 mice). From day 6, for the TEL-cKIT/Y823D-BaF3 and TEL-cKIT/D820G-BaF3 mouse models the corresponding mice were administrated orally every day with methylcellulose (HKI) as the vehicle (5 mice); with Compound 1 and Compound 2 at a dosage of 40 mg/kg, 80 mg/kg mouse weight (5 mice in each group); and with Sunitnib (purchased from MedChemExpress, China) at a dosage of 40 mg/kg mouse weight (5 mice). From day 15, for the GIST-T1-T670I mouse model the corresponding mice were administrated orally every day with methylcellulose (HKI) as the vehicle (5 mice); with Compound 1 and Compound 2 at a dosage of 20 mg/kg, 40 mg/kg, 80 mg/kg mouse weight (5 mice in each group); and with Sunitnib at a dosage of 40 mg/kg mouse weight (5 mice). • (4) From day 6 (TEL-cKIT/T670I-BaF3, TEL-cKIT/Y823D-BaF3, TEL-cKIT/D820G-BaF3 mouse model) and From day 15 (GIST-T1-T670I mouse model), respectively, the length/width of the subcutaneous tumor were measured with a vernier caliper every day and the body weight of the mouse was recorded every day so as to determine the effects of Compound 1 and Compound 2 on the body weight and tumor size of the mice, respectively. • (5) The mice were sacrificed on Day 11 after administration for the TEL-cKIT/T670I-BaF3 mouse model, on Day 9 after administration for the TEL-cKIT/Y823D-BaF3 and TEL-cKIT/D820G-BaF3 mouse models, and on Day 28 after administration for the GIST-T1-T670I mouse model. The subcutaneous tumors were taken out, and the tumors were weighed and compared. • (6) The growth trend of subcutaneous tumors was calculated and the tumor size was calculated according to: length×width×width/2 mm^3.

COc1cc2nccc(Oc3ccc(NC(=O)Cc4ccc(C)c(C(F)(F)F)c4)cc3)c2cc1OC [Example 1, N-(4-((6,7-dimethoxyquinolin-4-yl)oxy)phenyl)-2-(4-methyl-3-(trifluoromethyl)phenyl)acetamide]
GI50 (BaF3; BaF3, 72 h): 7.26 µM | inhibitory effects against tumor in mice ([1]; 40 mg/kg): excellent inhibitory effects against tumor in mice | influence on mice weight [1]: without significant influence on mice weight

COc1cc2nccc(Oc3ccc(NC(=O)Cc4ccc(Cl)c(C(F)(F)F)c4)cc3)c2cc1OC [Example 2, N-(4-((6,7-dimethoxyquinolin-4-yl)oxy)phenyl)-2-(4-chloro-3-(trifluoromethyl)phenyl)-acetamide]
GI50 (BaF3; BaF3 parent cells, 72 hours, CCK-8): 5.97 µM | inhibitory effects against tumor in mice ([1]; 40 mg/kg): excellent inhibitory effects against tumor in mice | tumor inhibition rate ([1]; 40 mg/kg): ≥ 80% | influence on mice weight [1]: without significant influence on mice weight
